Article PMC6284057, “Combined Antibacterial Effects of Goat Cathelicidins With Different Mechanisms of Action” (Frontiers in Microbiology, 2018)
Read-outs that look alike come from different tables or passages of the source. No end group written: not given here.

Tests used:
E. coli ML-35p = type: cell-based, Escherichia coli; details: Mueller-Hinton broth, 10^6 CFU/ml, 0.1% BSA, 37°C, 24 h, median of at least 3 experiments
Method: (§1) Antimicrobial assay was performed as described previously ([Panteleev et al., 2017b]). Briefly, mid-log phase bacterial test cultures were diluted with the 2× Mueller-Hinton broth (MH, Sigma) supplemented with 1.8% NaCl or without it so that to reach a final cell concentration of 10^6 CFU/ml. 50 μl aliquots of the obtained bacterial suspension were added to 50 μl of the peptide solutions serially diluted with 0.1% water solution of bovine serum albumin (BSA) in 96-well flat-bottom polystyrene microplates (Eppendorf #0030730011). After incubation at 37°C and 900 rpm for 24 h the minimum inhibitory concentrations (MIC) were determined as the lowest peptide concentrations that prevented growth of a test microorganism observed as visible turbidity. The results were expressed as the median values determined on the basis of at least three independent experiments performed in triplicate.

E. coli XDR CI 1057 = details: for MIC value at transfer “1”: MH broth with 0.9% NaCl, 37°C, legend covers both strains, values match XDR CI 1057
Method: Resistance induction experiments were performed using the previously described method ([Chernysh et al., 2015]) with some modifications. Briefly, on day 1, the overnight culture of wild-type bacteria was diluted with the 2× MH broth containing 1.8% NaCl so that to reach a final cell concentration of 10^6 CFU/ml. 50 μl aliquots of the obtained bacterial suspension were added to 50 μl of the peptide solutions serially diluted with 0.1% water solution of BSA in 96-well microplates (Eppendorf #0030730011). After incubation at 37°C and 900 rpm for 22 ± 2 h, MICs were determined as described above. For each subsequent daily transfer, 5 μl of the inoculum taken from the first well with a sub-inhibitory drug concentration were diluted with 1 ml of the fresh 2× MH broth supplemented with 1.8% NaCl. […] Control serial passages in the absence of the agent were also performed.

[1] = test system: human red blood cells (hRBC); assay: Hemolysis (hemoglobin release assay); type: cell-based; details: 1.5 h incubation, hRBC of 3 independent donors
Method: (§2) Hemolytic activity of the peptides was tested against the fresh suspension of human red blood cells (hRBC) using the hemoglobin release assay as described previously ([Panteleev et al., 2016]). Three experiments were performed with the hRBC from blood samples obtained from independent donors. The obtained data were represented as average means with standard deviations. The cytotoxicity of the peptides against HEK293T (transformed human embryonic kidney cells) and HEF (human embryonic fibroblasts) cell lines was studied using the colorimetric 3-(4,5-dimethylthiazol-2-yl)-2,5-diphenyltetrazolium bromide (MTT) dye reduction assay according to ([Panteleev and Ovchinnikova, 2017]). Three independent experiments were performed for each peptide. Half maximal inhibitory concentration (IC50) values were estimated as described previously ([Kuzmin et al., 2018]).

[2] = test system: K. pneumoniae (XDR CI 1056); assay: microbe, parasite or virus in culture; type: cell-based, Klebsiella pneumoniae; details: Table S2, XDR clinical isolate; NaCl content of medium not stated; read-out: Minimum inhibitory concentration
Method: as §1

E. cloacae (XDR CI 4172) = assay: microbe, parasite or virus in culture; type: cell-based, Enterobacter cloacae; details: read-out: Minimum inhibitory concentration
Method: as §1

HEK293T cells = assay: Cytotoxicity (MTT assay); type: cell-based, human; details: 24 h incubation, 3 independent experiments, read-out: IC50 against HEK293T cells
Method: as §2

[3] = test system: A. baumannii (XDR CI 2675); assay: microbe, parasite or virus in culture; type: cell-based, Acinetobacter baumannii; details: read-out: Minimum inhibitory concentration
Method: as §1

[4] = test system: P. mirabilis (XDR CI 3423); assay: microbe, parasite or virus in culture; type: cell-based, Proteus mirabilis; details: Table S2, XDR clinical isolate; NaCl content of medium not stated; read-out: Minimum inhibitory concentration
Method: as §1

[5] = test system: P. aeruginosa (XDR CI 1049); assay: microbe, parasite or virus in culture; type: cell-based, Pseudomonas aeruginosa; details: Table S2, XDR clinical isolate; NaCl content of medium not stated; read-out: Minimum inhibitory concentration
Method: as §1

K. pneumoniae (CI 287) = type: cell-based, Klebsiella pneumoniae
Method: as §1
The peptides were twofold serially diluted with 0.1% BSA in 96-well microplates (Eppendorf #0030730011). Then, the peptide solutions were mixed in the new test plate crosswise in such a way that the resulting checkerboard contained each combination of the cathelicidins in eight doubly increasing concentrations, with wells containing the highest concentration of each peptide at opposite corners ([Berditsch et al., 2015]). Then, the antimicrobial assay was performed as described in the previous section. […] The results were expressed as the median values determined on the basis of three independent experiments performed in duplicate. Estimation of synergistic effects of different cathelicidins was performed by calculating the fractional inhibitory concentration index (FICI) according to the equation: FICI = [À]/MICÀ + [B]/MICB, where MICÀ and MICB are the MICs of the individual substances, while [A] and [B] are the MICs of A and B when used together. A synergistic effect was defined at a FICI ≤ 0.5.

E. coli (CI 214) = type: cell-based, Escherichia coli; details: CI 214, 24 h
Method: as §1

E. faecalis ATCC 29212 = type: cell-based, Enterococcus faecalis; details: ATCC 29212, 24 h
Method: Briefly, mid-log phase bacterial test cultures were diluted with the 2× Mueller-Hinton broth (MH, Sigma) supplemented with 1.8% NaCl or without it so that to reach a final cell concentration of 10^6 CFU/ml. 50 μl aliquots of the obtained bacterial suspension were added to 50 μl of the peptide solutions serially diluted with 0.1% water solution of bovine serum albumin (BSA) in 96-well flat-bottom polystyrene microplates (Eppendorf #0030730011). […] The results were expressed as the median values determined on the basis of at least three independent experiments performed in triplicate.

[6] = test system: mammalian cell lines (HEK293T, HEF); assay: Cytotoxicity (MTT assay); type: cell-based, human; details: HEK293T and HEF, 24 h incubation
Method: as §2

[7] = 0.9% NaCl, Mueller-Hinton broth, 10^6 CFU/ml, 0.1% BSA, 37°C, 24 h, median of at least 3 experiments
[8] = Table S2, XDR clinical isolate, NaCl content of medium not stated
[9] = Without NaCl, Mueller-Hinton broth, 10^6 CFU/ml, 0.1% BSA, 37°C, 24 h, median of at least 3 experiments

Sequence | Minimum inhibitory concentration (E. coli ML-35p; 0.9% NaCl) | Minimum inhibitory concentration (E. coli ML-35p; Without NaCl) | MIC value at transfer “1” (E. coli XDR CI 1057) | MIC (E. cloacae (XDR CI 4172); [7]) | MIC (E. cloacae (XDR CI 4172); [9]) | MIC [3, 7] | MIC [3, 9] | MIC of the individual peptide (MICA, MICB) (K. pneumoniae (CI 287); CI 287, 24 h) | further results
GRFKRFRKKLKRLWHKVGPFVGPILHY [ChMAP-28] | 0.06 µM | 0.06 µM | 0.125 µM | 0.25 µM | 0.125 µM | 0.25 µM | 0.03 µM | 0.5 µM | half maximal hemolysis concentration (HC50) ([1]; hemoglobin release): ~100 µM; MIC [2]: 0.125 µM; MIC (E. cloacae (XDR CI 4172); [8]): 0.25 µM; IC50 (HEK293T cells): ~3.5 µM; MIC [3, 8]: 0.25 µM; MIC [4]: 0.5 µM; MIC [5]: 0.5 µM; Fractional inhibitory concentration (FICA, FICB) (K. pneumoniae (CI 287); [X]/MICX, 0.9% NaCl): 0.125
RRLRPRRPRLPRPRPRPRPRPR [mini-ChBac7.5Nα] | 4 µM | 0.5 µM | 8 µM | 4 µM | 1 µM | >32 µM | 2 µM | 16 µM | MIC (E. coli (CI 214)): 4 µM; MIC value after selection (E. coli XDR CI 1057; after eight passages, highest concentration tested 256 μM, MH broth, 0.9% NaCl): > 256 µM; red blood cells lysed ([1]; at the concentration of 100 μM): 2%; Minimum inhibitory concentration (E. faecalis ATCC 29212): >32 µM; concentrations at which cytotoxic activity was shown [6]: > 25 µM; Fractional inhibitory concentration (FICA, FICB) (K. pneumoniae (CI 287); CI 287, 24 h): 0.125
